Measurements from US20250127799A1, “DRUG CONJUGATES FOR BONE MARROW PROTECTION” (priority 2023, published 2025).
Ends that are not written are not given here. Peptide text beside a SMILES is read from it. * marks the point of attachment. X1 = O=C(CCCCCN1C(=O)CC(*)C1=O)NCCCC(O)(P(=O)(O)O)P(=O)(O)O; X2 = O=P(O)(O)SCCNCCCN*

Columns and labels:
[1] = test system: human HSPCs; experiment: In vitro radioprotection for human HSPCs (CCK8 viability); conditions: for cellular viability compared to the group receiving no treatment at the same exposure dose: 2-8 Gy; for cellular viability: 50 μM for 4 h
Procedure: In this exemplary representative experiment, human HSPCs were seeded in a 96-well plate at a density of 2.5×10^4 per well (N=6 for each group). Next, cells were treated with a protective drug conjugate having a peptide sequence of CAPIGIAL (SEQ ID NO: 68) with acetylation at the N-terminus (e.g., AcCAPIGIAL; SEQ ID NO: 80) or amifostine alone at the final concentrations ranging from 0 to 100 μM for 4 h, followed by exposure to y-radiation (Cs-137) at 3 or 8 Gy (0.6 Gy/min). Two hours after the irradiation, the culture medium was replaced by a fresh medium. After 24 h of further incubation, a CCK8 assay was applied to evaluate the cell viability.
In this exemplary representative experiment, human HSPCs were seeded in a 96-well plate at a density of 2.5×10^4 per well (N=6 for each group).

[2] = test system: human bone marrow mononuclear cells; experiment: Colony forming unit assay, protection of cells exposed to carboplatin; type: cell-based; conditions: for CFU counts normalized to untreated cells: 50 μM carboplatin for 4 h
Procedure: In this exemplary representative chemoprotection experiment, a colony forming unit assay was conducted for bone marrow mononuclear cells exposed to carboplatin with or without the pre-treatment with protective agents. In brief, 1.1×10^4 human bone marrow mononuclear cells were suspended in 300 μL culture medium and mixed with 30 μL solutions of PBS (control), Amifostine, WR1065, or Conjugate (with the peptide sequence of CFLG (SEQ ID NO: 18)) at various concentrations. After 2 h of incubation, cells were washed and resuspended in 300 μL culture medium, followed by incubation with 50 μM carboplatin for 4 h. Next, cells were washed and resuspended in the colony forming medium for 14 days. The number of resultant CFU in each group was then determined, and the results were normalized to the group of cells without any treatment. […] In another exemplary representative chemoprotection experiment, Amifostine and Conjugate with the peptide sequence of CFLG (SEQ ID NO: 18) with concentrations ranging from 50 to 1,000 μM were evaluated.

[3] = test system: A549 non-small cell lung cancer cells; experiment: CCK-8 cellular proliferation assay, co-culture with chemodrugs; type: cell-based; conditions: for cellular proliferation compared to Non-treatment Control: 72 h
Procedure: In this exemplary representative experiment, a CCK-8 cellular proliferation assay was conducted for A549 non-small cell lung cancer cells exposed to the Carboplatin with or without protective agents.
In another exemplary representative chemoprotection experiment, Paclitaxel was used instead of Carboplatin in the CCK-8 cellular proliferation assay for A549 cells.

[4] = test system: Hs578T triple-negative breast cancer cells; experiment: as above; type: cell-based; conditions: for cellular proliferation compared to Non-treatment Control: 72 h
Procedure: In this exemplary representative experiment, a CCK-8 cellular proliferation assay was conducted for Hs578T triple-negative breast cancer cells exposed to the Carboplatin with or without protective agents.
In another exemplary representative chemoprotection experiment, Paclitaxel was used instead of Carboplatin in the CCK-8 cellular proliferation assay for Hs578T cells.

[5] = in vivo; cited from earlier work
[6] = test system: CD2F1 male mice; experiment: In vivo radioprotective effects: 30-day survival after Cobalt-60 gamma irradiation; conditions: for survival rate: 12 h before 9.1 Gy
Procedure: (§1) CD2F1 male mice (N=16) were subcutaneously (sc) injected with a single dose of two different conjugates. For one protective drug conjugate (Conjugate 1), the tested doses were 200, 400, and 800 mg/kg. The structure of Conjugate 1 included amifostine as the protective drug, alendronate as the bone-targeting ligand, and a protease-cleavable peptide having the sequence of CKPLGLWAL (SEQ ID NO: 33) with acetylation at the N-terminus (e.g., AcCKPLGLWAL; SEQ ID NO: 74). […] The irradiated mice were monitored for survival for 30 days post-irradiation. […] For the vehicle control group, the mortalities of mice occurred during 8 to 17 days post-irradiation, and the final survival rate was 6.25% (1 out of 16 survived), indicating significant mortality by gamma-irradiation.
For another protective drug conjugate (Conjugate 2), the tested doses were 250, 500, 600, and 700 mg/kg, and the irradiation was conducted at 24 h post-drug administration. The structure of Conjugate 2 included amifostine as the protective drug, alendronate as the bone-targeting ligand, and a protease-cleavable peptide having the sequence of CPLGLYAL (SEQ ID NO: 29) with acetylation at the N-terminus (e.g., AcCPLGLYAL; SEQ ID NO: 76).
as §1, with “a” for “two different conjugates. For one”, “1), and” for “1),”, “250, 300,” for “200, 400,”, “350” for “800”, “0% (0” for “6.25% (1”
as §1, with “CD2F1 male mice (N=16) were subcutaneously (sc) injected CD2F1” for “CD2F1”, “a” for “two different conjugates. For one”, “1), and” for “1),”, “250, 300,” for “200, 400,”, “350” for “800”
CD2F1 male mice (N=16) were subcutaneously (sc) injected CD2F1 male mice (N=16) were subcutaneously (sc) injected with a single dose of a protective drug conjugate (Conjugate 1), and the tested doses were 50, 100, and 200 mg/kg. The structure of Conjugate 1 included amifostine as the protective drug, alendronate as the bone-targeting ligand, and a protease-cleavable peptide having the sequence of CKPLGLWAL (SEQ ID NO: 33) with acetylation at the N-terminus (e.g., AcCKPLGLWAL; SEQ ID NO: 74). […] The irradiated mice were monitored for survival for […] post-irradiation. […] For the vehicle control group, the mortalities of mice occurred during 8 to 17 days post-irradiation, and the final survival rate was 0% (0 out of 16 survived), indicating significant mortality by gamma-irradiation.
CD2F1 male mice (N=16) were subcutaneously (sc) injected CD2F1 male mice (N=16) were subcutaneously (sc) injected with a single dose of a protective drug conjugate, i.e., Conjugate 3. The tested doses were 250, 300, and 350 mg/kg. […]

[7] = Conjugate cleavage in fresh bone marrow aspirate (HPLC); type: in vitro ADME; conditions: human bone marrow aspirate, same donor, 37° C., up to 6 h
Procedure: The proteolytic cleavage of conjugates determines the therapeutic window, which is controlled by the specific peptide sequence. In a representative cleavage experiment, a […] stock solution of a conjugate (30 mg/mL) was mixed with 90 μL of fresh bone marrow aspirate, followed by incubation at 37° C. for up to 6 h. A 10 μL sample was taken every hour, diluted in 90 μL acetonitrile to precipitate proteins and extract conjugates and cleavage products. The concentrations of the conjugates in samples were determined by HPLC, normalized, and presented as the cleavage ratio.

[8] = molecular target: matrix metalloproteinase 9 (MMP9) (Homo sapiens, UniProt P14780); experiment: In vitro matrix metalloproteinase-based conjugate cleavage; type: biochemical; conditions: isolated enzyme, MMP9, 37° C., up to 20 h, read-out: T1/2 of cleavage (converted)
Chain of matrix metalloproteinase 9 (MMP9) (P14780 94-707, species assumed): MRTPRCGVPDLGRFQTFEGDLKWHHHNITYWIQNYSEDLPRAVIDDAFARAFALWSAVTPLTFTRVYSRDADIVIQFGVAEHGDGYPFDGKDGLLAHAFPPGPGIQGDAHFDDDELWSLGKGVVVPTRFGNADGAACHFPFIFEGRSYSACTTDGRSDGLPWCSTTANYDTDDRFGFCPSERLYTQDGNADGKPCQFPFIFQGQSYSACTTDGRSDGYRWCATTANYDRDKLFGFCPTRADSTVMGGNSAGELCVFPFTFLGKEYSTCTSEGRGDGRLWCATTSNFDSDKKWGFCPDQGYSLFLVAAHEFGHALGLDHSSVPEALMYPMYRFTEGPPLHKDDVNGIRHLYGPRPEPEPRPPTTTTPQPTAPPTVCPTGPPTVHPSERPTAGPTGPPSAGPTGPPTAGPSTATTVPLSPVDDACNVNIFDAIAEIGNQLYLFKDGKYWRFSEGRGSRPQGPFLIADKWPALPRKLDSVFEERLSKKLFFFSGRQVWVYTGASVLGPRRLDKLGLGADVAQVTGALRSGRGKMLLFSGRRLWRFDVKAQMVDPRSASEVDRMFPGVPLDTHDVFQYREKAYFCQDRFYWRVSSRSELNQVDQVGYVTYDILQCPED
Procedure: In this exemplary representative cleavage experiment, a 90 μL stock solution of protective drug conjugate (1 mg/mL) was mixed with 2 μL of matrix metalloproteinase 9 (MMP9) (10 unit/μL) and 8.2 μL of 50 mM CaCl2 solution, followed by incubation at 37° C. for up to 20 h. A 10 μL sample was taken at 0.3, 1, 2, 4, 9, or 20 h for the HPLC analysis. Three conjugates having different peptide sequences (Conjugates 1-3) were used in this test: Conjugate 1-peptide sequence of CPLSLYAL (SEQ ID NO: 65); Conjugate 2-peptide sequence of CPLSLYSL (SEQ ID NO: 66); and Conjugate 3-peptide sequence of CPLGLAL (SEQ ID NO: 67). The concentrations of the conjugate residual in samples were normalized and presented as cleavage ratios.

In the case of `NCCCNCCSP(=O)(O)O` [Amifostine], the “cellular viability compared to the group receiving no treatment at the same exposure dose” value ([1]; 50 μM) is reported as “much higher cellular viability”, the “mitigation of Carboplatin-caused CFU reduction” value ([2]; pretreatment 50 to 1,000 μM, dose-dependent (FIG. 8B)) is reported as “significantly mitigated” and the “toxicity to A549 cells” value ([3]; 10 to 200 μM) is reported as “non-toxic”. The “toxicity to Hs578T cells” value ([4]; 10 to 200 μM) was “non-toxic”, the “bone marrow residence time” value [5] was less than 30 min and the pharmacokinetic circulating time [5] was less than 8 min.
In the case of `N.N.O=C([O-])C1(C(=O)[O-])CCC1.[Pt+2]` [Carboplatin], the “CFU counts normalized to untreated cells” value ([2]; no protective agent (FIG. 8A)) is reported as roughly 40%, the “CFU counts normalized to untreated cells” value ([2]; no protective agent (FIG. 8B)) is reported as roughly 30% and the “cellular proliferation compared to Non-treatment Control” value ([3]; 0.1 mM Carboplatin) is reported as roughly 30%. For the same molecule, the “cellular proliferation compared to Non-treatment Control” value ([4]; 0.1 mM Carboplatin) was roughly 35%.
Work on “Conjugate (AcCAPIGIAL): protective drug conjugate having peptide sequence CAPIGIAL with acetylation at the N-terminus (SEQ ID NO: 80) (Ac-CAPIGIAL; also: amifostine conjugate (site not given here))” yielded a cellular viability ([1]; then 2 Gy (FIG. 6B)) of 91.9%, a cellular viability ([1]; then 8 Gy (FIG. 6A)) of 61.1% and a cellular viability ([1]; then 8 Gy (FIG. 6B)) of 59.6%. For the same molecule, the “cellular viability compared to the group receiving no treatment at the same exposure dose” value ([1]; 50 μM) was “much higher cellular viability”, the “cellular viability relative to the control group” value ([1]; 50 μM, 8 Gy) was roughly 2.3 fold and the “difference in cellular viability between conjugate and amifostine groups” value ([1]; 50 μM, any exposure dose from 2 Gy to 8 Gy) was “no statistical difference”. For the same molecule, the “concentration of maximum radioprotective efficacy” value ([1]; 8 Gy, 0-100 μM tested) was 50 µM and the radioprotective effect ([1]; 50 or 100 μM, 3 Gy) was “significant radioprotective effect”.
In the case of `CC(=O)O[C@H]1C(=O)[C@@]2(C)[C@H]([C@H](OC(=O)c3ccccc3)[C@]3(O)C[C@H](OC(=O)[C@H](O)[C@@H](NC(=O)c4ccccc4)c4ccccc4)C(C)=C1C3(C)C)[C@]1(OC(C)=O)CO[C@@H]1C[C@@H]2O` [Paclitaxel], the “cellular proliferation compared to Non-treatment Control” value ([3]; 5 nM Paclitaxel) is reported as roughly 30% and the “cellular proliferation compared to Non-treatment Control” value ([4]; 5 nM Paclitaxel) is reported as roughly 35%.
`CC(=O)N[C@@H](CSC1CC(=O)N(CCCCCC(=O)NCCCC(O)(P(=O)(O)O)P(=O)(O)O)C1=O)C(=O)N[C@@H](CCCCN)C(=O)N1CCC[C@H]1C(=O)N[C@@H](CC(C)C)C(=O)NCC(=O)N[C@@H](CC(C)C)C(=O)N[C@@H](Cc1c[nH]c2ccccc12)C(=O)N[C@@H](C)C(=O)N[C@@H](CC(C)C)C(=O)NCCCNCCSP(=O)(O)O` (stereo partly shown) [Conjugate 1] (Ac-C(X1)KPLGLWAL-X2) showed a survival rate ([6]; 50 mg/kg sc) of 75%, a survival rate ([6]; 100 mg/kg sc) of 93.75% and a 30-day survival rate ([6]; 200 mg/kg sc, 6 h before 9.2 Gy) of 68.75%. The survival rate ([6]; 200 mg/kg sc) was 93.75%, the 30-day survival rate ([6]; 250 mg/kg sc, 9 h before 9.2 Gy) was 75% and the 30-day survival rate ([6]; 250 mg/kg sc, 12 h before 9.2 Gy) was 100%. It also gave a 30-day survival rate ([6]; 300 mg/kg sc, 9 h before 9.2 Gy) of 87.25%, a 30-day survival rate ([6]; 300 mg/kg sc, 12 h before 9.2 Gy) of 87.5% and a 30-day survival rate ([6]; 350 mg/kg sc, 9 h before 9.2 Gy) of 56.25%. The 30-day survival rate ([6]; 350 mg/kg sc, 12 h before 9.2 Gy) was 81.25%, the 30-day survival rate ([6]; 400 mg/kg sc, 6 h before 9.2 Gy) was 81.25% and the 30-day survival rate ([6]; 800 mg/kg sc, 6 h before 9.2 Gy) was 68.75%. The “time to reach 50% conjugate cleavage” value [7] was 2.4 h and the half-life at 0.898 mg/mL [8] was roughly 2 h.
